Where “and” joins values, the source holds several entries; their conditions need not be identical. Identical values can stand only once. Like-named read-outs stand apart in the source and are kept apart here.

A word on the Ki: it is the dissociation constant of the complex between target and ligand, obtained from inhibition or displacement.

In assay [1] the target is elastase of P. aeruginosa (Pseudomonas aeruginosa, UniProt P14756). Particulars: background; known inhibitors effective at rather large concentrations; cited from earlier work.
In assay [2] the target is Pseudomonas elastase (Pseudomonas aeruginosa, UniProt P14756). Description: biochemical. As for the experimental part:
Measurements were performed at 25° C. The reaction solutions (2.5 ml) ocnsisted of 0.1-0.2 mM substrate in 0.1M NaCl-0.05M Tris. HCl-0.01M CaCl2, pH 7.5; all were demetallized. The hydrolysis of substrate was first order and rates were determined from plots of (At -A) versus t (At and A represent absorbance at time t and after completion of the reaction, respectively). Inhibition constants (Ki) were derived from plots of ko /ki versus inhibitor concentration (ko and ki are the observed rate constants in absence and presence of inhibitors, respectively).
The inhibition characteristics of […] for Pseudomonas elastase, using furylacryloyl-Gly-Leu-Ala as the substrate, was determined. […] The Ki value for HS-Ac-Phe-Leu was 0.2 μM.

The subject of assay [3] is Pseudomonas aeruginosa. Description: Experimental model of Pseudomonas keratitis in rabbit eyes, antibiotic plus inhibitor versus antibiotic alone. Format: in vivo. Particulars: 10 mM inhibitor drops combined with 0.3% gentamicin sulfate. How it is done: 3. The efficacy of combined treatment with antibiotics and the inhibitor HSAc-Phe-Leu was compared with that of the antibiotics alone using an experimental model of Pseudomonas keratitis in rabbit eyes. The inhibitor at a concentration of 10 mM was given, one drop at a time, every 15 min. for 1 hour after infection with the bacteria, and then hourly for additional 44 hours. The antibiotic (0.3% gentamicin sulfate) was applied every 2 hours, starting 16 hours after infection.

Assay [4] deals with T1, Pseudomonas aeruginosa elastase (Pseudomonas aeruginosa, UniProt P14756). The experiment in a line: Protection of the cornea: topical inhibitor drops before and after elastase injection into rabbit cornea. Format: in vivo. The note with it: 10 mM solution. From the text: 2. […] This series of experiments proves that the mercaptoacetyl dipeptide is an effective agent preventing damage to the eye caused by Pseudomonas aeruginosa elastase.

Assay [5] concerns the target T1, Pseudomonas aeruginosa elastase. The experiment in a line: Protection of the cornea: pure elastase injected into rabbit cornea together with inhibitor. The note with it: rabbit eye, about 1 μg elastase injected with 0.2 μmole (70 μg) inhibitor. Format: in vivo. How it is done:
1. When about 1 μg of the pure elastase is injected into the cornea of a rabbit eye, the cornea "dissolves", swells and perforates within about an hour and a half from the time of the injection of the elastase. When the same amount of enzyme is injected in the presence of 0.2μ mole (70 μg) of the inhibitor mercaptoacetyl-L-phenylalanyl-L leucine, the dissolution effect is postponed to about 9 hours from the injection of the enzyme. […] The perforation of the cornea is prevented.

Assay [6] concerns Pseudomonas aeruginosa. Description: Rabbit eyes infected with P. aeruginosa, topical treatment (Expt. A and B), clinical scores and corneal melting. The note with it: for Development of extensive corneal melting (%) / Development of extensive corneal melting, No. of eyes with melting/No. of eyes in group: extensive: 30% of corneal area affected; for Development of corneal melting (%) / Development of corneal melting, No. of eyes with melting/No. of eyes in group: rabbit eyes; for Clinical Scores: individual rabbit eyes, scoring of Table 3, maximum 10. Format: in vivo. As for the experimental part:
Further experiments were carried out. The schedule of topical treatment is set out in Table 2. The criteria applied to the results are set out in Table 3. […]

T1 sequence (P14756 198-498): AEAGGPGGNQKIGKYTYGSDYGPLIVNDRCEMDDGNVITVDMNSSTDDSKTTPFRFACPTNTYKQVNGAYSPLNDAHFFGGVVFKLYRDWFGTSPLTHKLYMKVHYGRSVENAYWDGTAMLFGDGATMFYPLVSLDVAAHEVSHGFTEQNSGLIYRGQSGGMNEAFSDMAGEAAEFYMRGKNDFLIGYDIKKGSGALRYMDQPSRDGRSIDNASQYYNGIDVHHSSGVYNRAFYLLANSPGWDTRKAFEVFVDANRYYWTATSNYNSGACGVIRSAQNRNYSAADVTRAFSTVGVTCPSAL
Chain of Pseudomonas elastase (P14756 198-498): as above
Chain of elastase of P. aeruginosa (P14756 198-498): as above

On to `O=C(O)CN(CCN(CC(=O)O)CC(=O)O)CC(=O)O` [EDTA], for which, in assay [1], the “inhibition of the elastase” value is listed as “inhibited”.
In the case of `CC(C)C[C@H](NC(=O)CS)C(=O)N[C@H](Cc1ccccc1)C(=O)O` [HS-Ac-Leu-D-Phe], in assay [2] (25° C., pH 7.5, substrate furylacryloyl-Gly-Leu-Ala, read-out: Ki), the Ki was found to be 34000 nM.
In turn, `CC(C)C[C@H](NC(=O)CS)C(=O)N[C@@H](Cc1ccccc1)C(=O)O` [HS-Ac-Leu-Phe, 2-mercaptoacetyl-L-leucyl-L-phenylalanine] registered an inhibitory constant (Ki) in assay [2] of 1500 nM.
Turning to `CC(C)C[C@H](NC(=O)[C@H](Cc1ccccc1)NC(=O)CS)C(=O)O` [HS-Ac-Phe-Leu, mercaptoacetyl-L-phenylalanyl-L-leucine], the “severity of the damage caused to the eyes, versus antibiotic alone” value in assay [3] is listed as “significantly lower”. Also, in assay [4] (topical drops before and after enzyme injection), the “dissolution of the cornea” value was “no "dissolution" of the cornea takes place at all”. Moreover, in assay [4] (topical drops, remains for many hours after cessation of treatment), the “appearance of the eye” value was “entirely normal”. In addition, the Ki in assay [2] amounted to 200 nM. Also, the “perforation of the cornea” value in assay [5] is “prevented”. Moreover, the “damage caused, part of the cornea affected” value in assay [5] (after about 9 hours) is listed as at most 10%. Besides, in assay [5] (without inhibitor about an hour and a half), the “time from injection of the enzyme to which the dissolution effect of the cornea is postponed” value was “about 9 hours”.
For `c1cnc2c(c1)ccc1cccnc12` [O-phenanthroline], the “inhibition of the elastase” value in assay [1] was “inhibited”.
Turning to gentamicin sulfate, the “Development of extensive corneal melting (%)” value came to 27% in assay [6] (28 h after infection) and 60% in assay [6] (48 h after infection). Further, the “Development of extensive corneal melting, No. of eyes with melting/No. of eyes in group” value is 4/15 in assay [6] (28 h after infection) and 9/15 in assay [6] (48 h after infection). The entries for the “Development of corneal melting (%)” value in assay [6] (28 h after infection) and in assay [6] (48 h after infection) were 73% and 93%, respectively. Also, the “Development of corneal melting, No. of eyes with melting/No. of eyes in group” value in assay [6] (28 h after infection) is 11/15; in assay [6] (48 h after infection), 14/15. Also, the “Clinical Scores” value in assay [6] (28 hours after infection, Expt. A) was 7 and 4 and 3 and 6 and 1; in assay [6] (28 hours after infection, Expt. B) it was 3 and 2 and 1 and 6; in assay [6] (48 hours after infection, Expt. A), 7 and 10 and 6 and 4 and 3; in assay [6] (48 hours after infection, Expt. B), 6 and 7 and 5 and 4.

(Values after US4613587A, “Ophthalmic preparations” (Yeda Research and Development Co. Ltd., priority 1983, dated 1986).)
